The test concerns RSV Long strain. The experiment in a line: Viral Cytopathic Effect (CPE) Assay. The test is classed as cell-based. Conditions: human respiratory syncytial virus, 144 h, cell viability after 6 days, Cell Counting kit-8. A general note: Damage to the host cells serves as the signal in cytopathic effect assays.

Experimental findings from patent publication US9206191B2, “Indazoles for the treatment and prophylaxis of respiratory syncytial virus infection” (Hoffmann-La Roche Inc., priority 2012, dated 2015) are described below.

The EC50 is the midpoint of the concentration-response curve. Consider `CS(=O)(=O)c1nn(Cc2nc3cc(Cl)ccc3n2[C@H]2CC[C@H](O)C2)c2cnccc12` (relative stereo) [Example 2-36, trans-3-(5-chloro-2-{[3-(methylsulfonyl)-1H-pyrazolo[3,4-c]pyridin-1-yl]methyl}-1H-benzimidazol-1-yl)cyclopentanol], for which the EC50 amounted to 2 nM. `C[C@@]1(O)CC[C@H](n2c(Cn3nc(S(C)(=O)=O)c4ccncc43)nc3cc(Cl)ccc32)C1` (relative stereo) [Example 2-43, cis-3-(5-chloro-2-{[3-(methylsulfonyl)-1H-pyrazolo[3,4-c]pyridin-1-yl]methyl}-1H-benzimidazol-1-yl)-1-methylcyclopentanol] displayed an EC50 of 17.9 nM. For the compound `CS(=O)(=O)c1nn(Cc2nc3cc(Cl)ccc3n2C2CCS(=O)(=O)C2)c2cnccc12` (stereo in doubt) [Example 2-1, 1-({5-Chloro-1-[(3R)-1,1-dioxidotetrahydrothiophen-3-yl]-1H-benzimidazol-2-yl}methyl)-3-(methylsulfonyl)-1H-pyrazolo[3,4-c]pyridine], a half-maximal effect (EC50) was put at 8.99 nM. For `CS(=O)(=O)CCCn1c(Cn2cc(S(C)(=O)=O)c3ccccc32)nc2cc(Cl)ccc21` [Example 1-2, 5-Chloro-2-{[3-(methylsulfonyl)-1H-indol-1-yl]methyl}-1-[3-(methylsulfonyl)propyl]-1H-benzimidazole], the EC50 was 62.5 nM. On to `CS(=O)(=O)CCCn1c(Cn2cc(S(C)(=O)=O)c3cc(F)ccc32)nc2cc(Cl)ccc21` [Example 1-3, 5-Chloro-2-{[5-fluoro-3-(methylsulfonyl)-1H-indol-1-yl]methyl}-1-[3-(methylsulfonyl)propyl]-1H-benzimidazole], for which the EC50 was 197 nM. For `CS(=O)(=O)CCCn1c(Cn2cc(S(C)(=O)=O)c3ccncc32)nc2cc(Cl)ccc21` [Example 1-4, 5-Chloro-1-[3-(methylsulfonyl)propyl]-2-{[3-(methylsulfonyl)-1H-pyrrolo[2,3-c]pyridin-1-yl]methyl}-1H-benzimidazole], the EC50 is 82 nM. `CCS(=O)(=O)c1cn(Cc2nc3cc(Cl)ccc3n2CCCS(C)(=O)=O)c2ccccc12` [Example 1-5, 5-Chloro-2-{[3-(ethylsulfonyl)-1H-indol-1-yl]methyl}-1-[3-(methylsulfonyl)propyl]-1H-benzimidazole] registered an EC50 of 65 nM. On to `CC(C)S(=O)(=O)c1cn(Cc2nc3cc(Cl)ccc3n2CCCS(C)(=O)=O)c2ccccc12` [Example 1-6, 5-Chloro-1-[3-(methylsulfonyl)propyl]-2-{[3-(propan-2-ylsulfonyl)-1H-indol-1-yl]methyl}-1H-benzimidazole], for which the midpoint of the response, the EC50, lay at 119 nM. `CS(=O)(=O)CCCn1c(Cn2cc(S(=O)(=O)C3CC3)c3ccccc32)nc2cc(Cl)ccc21` [Example 1-7, 5-Chloro-2-{[3-(cyclopropylsulfonyl)-1H-indol-1-yl]methyl}-1-[3-(methylsulfonyl)propyl]-1H-benzimidazole] gave an EC50 of 227 nM.

Regarding `CS(=O)(=O)CCCn1c(Cn2nc(S(C)(=O)=O)c3ccccc32)nc2cc(Cl)ccc21` [Example 1-8, 1-({5-Chloro-1-[3-(methylsulfonyl)propyl]-1H-benzimidazol-2-yl}methyl)-3-(methylsulfonyl)-1H-indazole], the response was half-maximal at 16 nM (EC50). For `CC(C)S(=O)(=O)c1nn(Cc2nc3cc(Cl)ccc3n2CCCS(C)(=O)=O)c2ccccc12` [Example 1-9, 1-({5-Chloro-1-[3-(methylsulfonyl)propyl]-1H-benzimidazol-2-yl}methyl)-3-(propan-2-ylsulfonyl)-1H-indazole], the EC50 is 74.4 nM. Then `CCS(=O)(=O)c1nn(Cc2nc3cc(Cl)ccc3n2CCCS(C)(=O)=O)c2ccccc12` [Example 1-10, 1-({5-Chloro-1-[3-(methylsulfonyl)propyl]-1H-benzimidazol-2-yl}methyl)-3-(ethylsulfonyl)-1H-indazole], with 37.8 nM.

`CS(=O)(=O)CCCn1c(Cn2nc(S(C)(=O)=O)c3ccncc32)nc2cc(Cl)ccc21` [Example 1-11, 1-({5-Chloro-1-[3-(methylsulfonyl)propyl]-1H-benzimidazol-2-yl}methyl)-3-(methylsulfonyl)-1H-pyrazolo[3,4-c]pyridine] returned an EC50 of 4.6 nM. Under `CS(=O)(=O)CCn1c(Cn2nc(S(C)(=O)=O)c3ccccc32)nc2cc(Cl)ccc21` [Example 1-12, 1-({5-Chloro-1-[2-(methylsulfonyl)ethyl]-1H-benzimidazol-2-yl}methyl)-3-(methylsulfonyl)-1H-indazole] stands 26.2 nM. In turn, `CC(C)S(=O)(=O)c1nn(Cc2nc3cc(Cl)ccc3n2CCS(C)(=O)=O)c2ccccc12` [Example 1-13, 1-({5-Chloro-1-[2-(methylsulfonyl)ethyl]-1H-benzimidazol-2-yl}methyl)-3-(propan-2-ylsulfonyl)-1H-indazole] gave an EC50 of 312 nM. Compound `CS(=O)(=O)c1nn(Cc2nc3cc(Cl)ccc3n2C2CCS(=O)(=O)C2)c2ccccc12` (centres unmarked) [Example 2-2, 1-{[5-Chloro-1-(1,1-dioxidotetrahydrothiophen-3-yl)-1H-benzimidazol-2-yl]methyl}-3-(methylsulfonyl)-1H-indazole] came in with an EC50 of 7.86 nM.

As for `CS(=O)(=O)c1nn(Cc2nc3cc(Cl)ccc3n2C2COC2)c2ccccc12` [Example 2-3, 1-{[5-Chloro-1-(oxetan-3-yl)-1H-benzimidazol-2-yl]methyl}-3-(methylsulfonyl)-1H-indazole], the EC50 worked out at 21.8 nM. `CS(=O)(=O)c1nn(Cc2nc3cc(Cl)ccc3n2C2CCNC(=O)C2)c2cnccc12` (centres unmarked) [Example 2-4, 4-(5-Chloro-2-{[3-(methylsulfonyl)-1H-pyrazolo[3,4-c]pyridin-1-yl]methyl}-1H-benzimidazol-1-yl)piperidin-2-one]: a half-maximal effect (EC50) was put at 7.35 nM. `CS(=O)(=O)c1nn(Cc2nc3cc(Cl)ccc3n2C2COC2)c2cnccc12` [Example 2-5, 1-{[5-Chloro-1-(oxetan-3-yl)-1H-benzimidazol-2-yl]methyl}-3-(methylsulfonyl)-1H-pyrazolo[3,4-c]pyridine] returned an EC50 of 22.4 nM.

Take `CS(=O)(=O)c1nn(Cc2nc3cc(Cl)ccc3n2C2CCOCC2)c2ccccc12` [Example 2-6, 1-{[5-Chloro-1-(tetrahydro-2H-pyran-4-yl)-1H-benzimidazol-2-yl]methyl}-3-(methylsulfonyl)-1H-indazole]: the midpoint of the response, the EC50, lay at 21.8 nM. Then `CS(=O)(=O)c1nn(Cc2nc3cc(Cl)ccc3n2C2CCOCC2)c2cnccc12` [Example 2-7, 1-{[5-Chloro-1-(tetrahydro-2H-pyran-4-yl)-1H-benzimidazol-2-yl]methyl}-3-(methylsulfonyl)-1H-pyrazolo[3,4-c]pyridine], with 7.72 nM; and `CS(=O)(=O)c1nn(Cc2nc3cc(Cl)ccc3n2C2CCOC2)c2ccccc12` (centres unmarked) [Example 2-8, 1-{[5-Chloro-1-(tetrahydrofuran-3-yl)-1H-benzimidazol-2-yl]methyl}-3-(methylsulfonyl)-1H-indazole], with 36.1 nM. Regarding `CS(=O)(=O)c1nn(Cc2nc3cc(Cl)ccc3n2C2CCC(F)(F)C2)c2ccccc12` (centres unmarked) [Example 2-9, 1-{[5-Chloro-1-(3,3-difluorocyclopentyl)-1H-benzimidazol-2-yl]methyl}-3-(methylsulfonyl)-1H-indazole], the EC50 worked out at 6.97 nM.

Compound `CS(=O)(=O)c1nn(Cc2nc3cc(Cl)ccc3n2C2CCC(F)(F)C2)c2cnccc12` (centres unmarked) [Example 2-10, 1-{[5-Chloro-1-(3,3-difluorocyclopentyl)-1H-benzimidazol-2-yl]methyl}-3-(methylsulfonyl)-1H-pyrazolo[3,4-c]pyridine] returned an EC50 of 14.3 nM. Then `CS(=O)(=O)c1nn(Cc2nc3cc(Cl)ccc3n2C2CCC(O)CC2)c2cnccc12` (centres unmarked) [Example 2-11, 4-(5-Chloro-2-{[3-(methylsulfonyl)-1H-pyrazolo[3,4-c]pyridin-1-yl]methyl}-1H-benzimidazol-1-yl)cyclohexanol], with 8.2 nM. In turn, `CS(=O)(=O)c1nn(Cc2nc3cc(Cl)ccc3n2C2CCC(O)C2)c2c[n+]([O-])ccc12` (centres unmarked) [Example 2-12, 3-(5-Chloro-2-{[3-(methylsulfonyl)-6-oxido-1H-pyrazolo[3,4-c]pyridin-1-yl]methyl}-1H-benzimidazol-1-yl)cyclopentanol] came in with a concentration giving a half-maximal response (EC50) of 769 nM.

`CS(=O)(=O)c1nn(Cc2nc3cc(Cl)ccc3n2C2CCNC2)c2cnccc12` (centres unmarked) [Example 2-13, 1-{[5-Chloro-1-(pyrrolidin-3-yl)-1H-benzimidazol-2-yl]methyl}-3-(methylsulfonyl)-1H-pyrazolo[3,4-c]pyridine] had an EC50 of 44.2 nM. Compound `CS(=O)(=O)c1nn(Cc2nc3cc(Cl)ccc3n2C2CNC2)c2cnccc12` [Example 2-14, 1-{[1-(Azetidin-3-yl)-5-chloro-1H-benzimidazol-2-yl]methyl}-3-(methylsulfonyl)-1H-pyrazolo[3,4-c]pyridine] displayed an EC50 of 708 nM. Compound `CS(=O)(=O)c1nn(Cc2nc3cc(Cl)ccc3n2C2CCNCC2)c2ccccc12` [Example 2-15, 1-{[5-Chloro-1-(piperidin-4-yl)-1H-benzimidazol-2-yl]methyl}-3-(methylsulfonyl)-1H-indazole] yielded an EC50 of 591 nM. Then `CC(=O)N1CCC(n2c(Cn3nc(S(C)(=O)=O)c4ccncc43)nc3cc(Cl)ccc32)C1` (centres unmarked) [Example 2-16, 1-[3-(5-Chloro-2-{[3-(methylsulfonyl)-1H-pyrazolo[3,4-c]pyridin-1-yl]methyl}-1H-benzimidazol-1-yl)pyrrolidin-1-yl]ethanone], with 16.4 nM. In the case of `CS(=O)(=O)c1nn(Cc2nc3cc(Cl)ccc3n2C2CCN(C(=O)CO)C2)c2cnccc12` (centres unmarked) [Example 2-17, 1-[3-(5-Chloro-2-{[3-(methylsulfonyl)-1H-pyrazolo[3,4-c]pyridin-1-yl]methyl}-1H-benzimidazol-1-yl)pyrrolidin-1-yl]-2-hydroxyethanone], the midpoint of the response, the EC50, lay at 10.9 nM. The compound `CS(=O)(=O)c1nn(Cc2nc3cc(Cl)ccc3n2C2CCN(C(=O)CN)C2)c2cnccc12` (centres unmarked) [Example 2-18, 2-Amino-1-[3-(5-chloro-2-{[3-(methylsulfonyl)-1H-pyrazolo[3,4-c]pyridin-1-yl]methyl}-1H-benzimidazol-1-yl)pyrrolidin-1-yl]ethanone] had an EC50 of 36 nM.
